Data set [1] deals with CYP-induced cystitis. The data set can be described thus: Cystometrographic recordings in conscious rats with CYP-induced cystitis. The format is in vivo, rat. The settings on record: for bladder volume capacity (BVC): 24 hours after CYP 175 mg/kg i.p. The method, then: Female Sprague Dawley rats (Crl:CD(SD)BR, 250-350 g bw) from Charles River Italy were used in these experiments. Animals were housed with free access to food and water and maintained on a forced 12 hours light-dark cycle at 22-24° C. for at least one week before the experiments were carried out.
Rats, anaesthetized with equithensin solution (2 ml/kg i.p.), were placed in a supine position and an approximately 10 mm midline incision was made in the shaved and cleaned abdominal wall. The urinary bladder was gently freed from adhering tissues, emptied and then cannulated, via an incision at the dome, with a polyethylene cannula (Portex, ID 0.58 mm, OD 0.96 mm), which was permanently sutured with silk thread. The cannula was exteriorized through a subcutaneous tunnel in the retroscapular area, where it was connected with a plastic adapter, in order to avoid the risk of removal by the animal.
For drugs testing, rats were utilized one day after catheter implantation at about 24 hours after administrations CYP.
On the day of the experiment, the rats (fasted overnight) were placed in Bollman's cages; after a stabilization period of 20 min, the free tip of the cannula was connected by a T-shape tube to a pressure transducer and to a peristaltic pump for a continuous infusion of saline solution (room temperature) into the urinary bladder, at the constant rate of 0.05 ml/min. This procedure, termed cystometry, allows the detection of continuous cycles of filling and voiding of the bladder named cystometrograms.
From the cystometrograms acquired by the Biopac System and recorded on a PC the Bladder Volume Capacity (BVC) parameter was calculated as volume capacity, defined as volume (in ml) infused into the bladder and necessary to induce detrusor contraction followed micturition.
Basal BVC was evaluated as mean values from the cystometrograms recorded in 30-60 minutes of time prior the treatment (“BASAL”). Then the bladder infusion was stopped, the animals were treated orally with the test compound or vehicle and, after restarting continuous bladder filling with saline for 4 or 5 hours, BVC values after administration were collected.
BVC parameters were recorded from the cystometrogram over a 4/5 hours period post-dose.

For data set [2], the system named is CYP-induced visceral pain. The data set can be described thus: Chronic preventive treatment in CYP-induced visceral pain model in rats; comparison with Mesna. The format is in vivo, rat. The settings on record: 7 mg/kg twice daily p.o. for 7 days. The method, then:
The effect of chronic preventive administration of Compd. 1 in a visceral pain model induced by repeated administration of cyclophosphamide (CYP) in conscious rats was evaluated.
The oral dose of 7 mg/kg of Compd. 1 was chosen on the basis of previous evaluations. Compd. 1 or vehicle was orally administered to animals twice daily (according to the PK profile of the molecule) for 7 days. Mesna_or vehicle was intraperitoneally administered several times a day for 3 days (when CYP was administered).
Repeated treatment with CYP (75 mg/kg i.p. for 3 times, every 3rd day), induced a strong decrease in withdrawal thresholds to noxious stimulus measured at the level of low abdomen and hind-paws. Nociceptive hypersensitivity was evaluated. In the control group, nociceptive thresholds of abdomen and hind-paws were not altered after the treatment with vehicle.
Behavioral testing was performed at 4 different times: • before CYP administration (in order to acquire basal values) • after CYP administration and before treatment with the tested compound, to verify the pathology (in order to acquire pre-treatment values) • after treatment, 42 or 48 hours from the last administration of Compd. 1 or Mesna.

Data set [3] has as its system CYP-induced cystitis. Kind of data set: Microscopic examination of urinary bladders after chronic preventive administration. In kind it is in vivo, rat. The settings on record: 12 hours before and twice per day from first day of CYP for 7 days. The text has this:
At the end of the study, the urinary bladders were opened, placed in 10% buffered formalin and stored at room temperature until completion of hystomorphological analysis (see Example 6 below).
At the end of the efficacy study of chronic preventive administration, the urinary bladders were opened, placed in 10% buffered formalin and stored at room temperature until hystomorphological analysis.
Treatment with Compd. […] 1.

In another data set the test system is KC/GRO-α. Kind of data set: KC/GRO-α plasma content after preventive treatment in CYP-induced cystitis model in rats. The format is in vivo, rat. The settings on record: day 9; 20 mg/kg p.o. 12 hours before first CYP, then 7 mg/kg p.o. twice a day for 7 days. Here is the method: The effect of chronic preventive administration of Compd. 1 on KC/GRO-α plasma content in a CYP-induced cystitis model in conscious rats was evaluated.
To elicit cystitis, rats received intraperitoneal (i.p.) injections of CYP (75 mg/Kg every third day for three times). A single high dose of Compd. 1 (20 mg/kg) was orally administered 12 hours before the first CYP treatment; subsequently Compd. 1 (7 mg/kg p.o.) was administered twice a day for 7 days (from day 1 to day 7 from the first CYP administration). The oral dose of 7 mg/kg of Compd. 1 was chosen on the basis of previous evaluations. Animals blood was collected at day 7 (the same day of the last CYP treatment) at day 8 (about 24 hrs after last CYP administration) and at day 9 (about 48 hrs after last CYP administration). Each experimental group was composed of 10 animals, 10 animals treated with CYP+vehicle compound, 10 animals treated with CYP+Compd. 1, and 10 animals (sham) treated with CYP vehicle+vehicle compound.
The same animal was subjected to 3 blood serial samplings in order to evaluate the time-course of inflammatory mediators content. After thawing and centrifuge to remove any aggregates and lipid residues that could interfere with the reading, the samples were evaluated through quantitative analysis of KC/GRO-α.

A short description of data set [4]: Pharmacokinetic profile after oral administration. The format is in vivo.

Entries after “also recorded” stand apart in the source; their conditions may differ.

In the case of `C[C@H](C(=O)O)c1ccc(Nc2nc(C(F)(F)F)cs2)cc1` [Compd. 1, (2S)-2-(4-{[4-(trifluoromethyl)-1,3-thiazol-2-yl]amino}phenyl) propanoic acid], the “bladder volume capacity (BVC)” value in the data set on CYP-induced cystitis [1] (10 mg/kg oral) is on record as “did not induce any changes of BVC”. In addition, the “bladder volume capacity (BVC)” value in the data set with CYP-induced cystitis [1] (20 mg/kg oral) was “moderate increase of BVC statistically different from vehicle and pre-drug treatment at 4 and 5 hours”. The “bladder volume capacity (BVC)” value with CYP-induced cystitis [1] (30 mg/kg oral) was “sustained increase of BVC”. In addition, the “increase of BVC” value in the data set on CYP-induced cystitis [1] (30 mg/kg oral, significant at 3 and 4 hours after treatment) is reported as “up to +40%”. For the same molecule, in the data set on CYP-induced cystitis [1] (20 and 30 mg/kg oral), the MP entry is “inactive on MP”. Further, in data set [2], the “nociceptive hypersensitivity in hind-paws plantar surface” value is reported as “completely reversed the nociceptive hypersensitivity in hind-paws plantar surface” and the “withdrawal thresholds in the abdomen” value was “almost complete recovery of withdrawal thresholds in the abdomen”. For the same molecule, the “inflammatory, degenerative, proliferative and hemorrhagic lesions caused by CYP” value in the data set with CYP-induced cystitis [3] was “clearly reduced the inflammatory, degenerative, proliferative and hemorrhagic lesions caused by CYP”. Further, in the data set on KC/GRO-α, the GRO-α/KC blood levels result is given as “significantly reduces GRO-α/KC blood levels at day 9”. In addition, in data set [4] (in vivo), the “distribution in the tissues” value is on record as “poorly distributed in the tissues” and the elimination from plasma entry is listed as “gradually eliminated from plasma”. In addition, the oral bioavailability entry in data set [4] (in vivo, po) was “excellent oral bioavailability”. The absorption result in data set [4] (oral route) is “rapid absorption; also recorded: well absorbed by the oral route”. In addition, in data set [4] (plasma), the “time of maximum concentration in plasma after administration” value came out at 2 h. Moreover, the Cmax in data set [4] (plasma, oral, read-out: maximum concentration (Cmax) in plasma) came out at 47400 ± 25400 ng/mL.

Source of the values: patent US12150933B2, “IL-8 inihibitors for use in the treatment of some urological disorders” (DOMPÉ FARMACEUTICI S.P.A., priority 2015, dated 2024).
